{"source": "ChEMBL document CHEMBL4602703", "about": "“Lead Optimization of a Pyrrole-Based Dihydroorotate Dehydrogenase Inhibitor Series for the Treatment of Malaria” (J Med Chem, 2020)", "key": {"Plasmodium falciparum [1]": {"system": "Plasmodium falciparum", "type": "functional, organism-based", "details": "R10C1B, 72 h; call rule not given here"}, "L1210": {"system": "L1210", "test": "Cytotoxicity against mouse L1210 cells assessed as reduction in cell viability", "type": "cell-based"}, "[2]": {"target": "Voltage-gated inwardly rectifying potassium channel KCNH2 (Homo sapiens, UniProt Q12809)", "sequence (Q12809 whole entry)": "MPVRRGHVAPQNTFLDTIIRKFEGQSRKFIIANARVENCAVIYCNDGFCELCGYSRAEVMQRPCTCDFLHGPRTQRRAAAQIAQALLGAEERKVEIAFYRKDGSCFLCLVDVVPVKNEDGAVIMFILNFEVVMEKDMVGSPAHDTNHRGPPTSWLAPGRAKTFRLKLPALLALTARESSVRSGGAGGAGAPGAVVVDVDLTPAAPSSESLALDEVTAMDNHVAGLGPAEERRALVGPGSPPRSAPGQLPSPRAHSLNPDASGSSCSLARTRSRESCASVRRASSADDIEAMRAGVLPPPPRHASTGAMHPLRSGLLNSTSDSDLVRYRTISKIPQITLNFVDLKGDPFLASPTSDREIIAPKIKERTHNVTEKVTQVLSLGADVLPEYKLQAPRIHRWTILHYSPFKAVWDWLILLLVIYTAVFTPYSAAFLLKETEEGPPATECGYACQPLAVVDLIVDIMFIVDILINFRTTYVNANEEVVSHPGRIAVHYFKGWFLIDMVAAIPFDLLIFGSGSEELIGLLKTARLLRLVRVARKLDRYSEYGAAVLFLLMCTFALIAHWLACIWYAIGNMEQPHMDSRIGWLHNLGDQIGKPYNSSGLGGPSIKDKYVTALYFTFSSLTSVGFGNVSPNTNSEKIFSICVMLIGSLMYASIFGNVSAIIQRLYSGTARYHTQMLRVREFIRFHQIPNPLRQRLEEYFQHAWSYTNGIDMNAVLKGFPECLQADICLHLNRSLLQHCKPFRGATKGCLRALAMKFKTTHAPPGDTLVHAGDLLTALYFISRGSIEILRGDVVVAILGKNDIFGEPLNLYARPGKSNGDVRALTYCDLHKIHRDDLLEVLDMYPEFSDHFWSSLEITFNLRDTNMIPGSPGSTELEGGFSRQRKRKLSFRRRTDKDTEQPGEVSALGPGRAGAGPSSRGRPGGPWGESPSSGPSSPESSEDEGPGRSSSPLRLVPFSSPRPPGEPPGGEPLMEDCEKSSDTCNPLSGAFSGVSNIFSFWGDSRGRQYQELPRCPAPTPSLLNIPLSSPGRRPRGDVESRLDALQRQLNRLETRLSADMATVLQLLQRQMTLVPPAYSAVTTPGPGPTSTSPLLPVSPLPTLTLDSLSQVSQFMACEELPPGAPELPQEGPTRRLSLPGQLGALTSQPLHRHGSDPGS", "test": "Inhibition of human ERG by IonWorks patch clamp electrophysiology assay"}, "[3]": {"target": "Potassium voltage-gated channel subfamily A member 5 (Homo sapiens, UniProt P22460)", "sequence (P22460 whole entry)": "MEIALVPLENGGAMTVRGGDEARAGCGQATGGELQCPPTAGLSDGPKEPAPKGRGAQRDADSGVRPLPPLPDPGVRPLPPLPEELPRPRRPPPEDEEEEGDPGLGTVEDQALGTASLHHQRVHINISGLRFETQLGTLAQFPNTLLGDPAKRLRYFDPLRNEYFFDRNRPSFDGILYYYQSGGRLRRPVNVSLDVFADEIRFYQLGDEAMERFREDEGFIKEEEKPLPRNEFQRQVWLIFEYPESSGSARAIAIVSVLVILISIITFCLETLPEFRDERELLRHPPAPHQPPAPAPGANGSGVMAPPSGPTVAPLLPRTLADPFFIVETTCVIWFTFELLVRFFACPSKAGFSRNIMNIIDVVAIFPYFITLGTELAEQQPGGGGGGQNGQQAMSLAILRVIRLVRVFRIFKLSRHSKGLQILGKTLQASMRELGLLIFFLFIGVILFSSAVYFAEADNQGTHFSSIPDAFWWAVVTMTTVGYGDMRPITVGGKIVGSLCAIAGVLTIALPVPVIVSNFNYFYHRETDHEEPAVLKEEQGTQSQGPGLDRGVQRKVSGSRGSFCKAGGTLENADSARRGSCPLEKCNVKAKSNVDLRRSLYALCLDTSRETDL", "test": "Inhibition of human Kv1.5 by IonWorks patch clamp electrophysiology assay"}, "[4]": {"test": "Protein binding in human plasma by LC-MS analysis based ultracentrifugation assay", "type": "ADME, cell-free", "details": "read-out: PPB (converted)"}, "[5]": {"test": "Protein binding in mouse plasma by LC-MS analysis based ultracentrifugation assay", "type": "ADME, cell-free", "details": "read-out: PPB (converted)"}, "Albumin": {"target": "Albumin (Homo sapiens, UniProt P02768)", "sequence (P02768 whole entry)": "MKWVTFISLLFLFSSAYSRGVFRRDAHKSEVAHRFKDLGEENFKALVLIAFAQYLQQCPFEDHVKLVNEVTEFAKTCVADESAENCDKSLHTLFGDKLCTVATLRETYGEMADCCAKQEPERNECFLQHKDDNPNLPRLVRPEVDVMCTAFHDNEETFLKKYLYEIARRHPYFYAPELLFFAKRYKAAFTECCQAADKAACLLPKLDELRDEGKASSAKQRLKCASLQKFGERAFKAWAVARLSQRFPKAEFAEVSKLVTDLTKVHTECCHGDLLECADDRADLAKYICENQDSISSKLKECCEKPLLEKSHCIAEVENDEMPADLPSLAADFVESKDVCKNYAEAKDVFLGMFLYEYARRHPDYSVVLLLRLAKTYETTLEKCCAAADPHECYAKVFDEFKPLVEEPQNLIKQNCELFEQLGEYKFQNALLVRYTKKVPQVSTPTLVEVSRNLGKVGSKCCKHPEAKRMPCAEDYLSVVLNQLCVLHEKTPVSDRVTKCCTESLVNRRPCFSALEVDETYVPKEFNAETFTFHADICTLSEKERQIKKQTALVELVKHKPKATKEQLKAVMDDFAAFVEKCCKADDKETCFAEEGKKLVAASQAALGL", "test": "Binding affinity to albumin (unknown origin) in ALBUMAX medium", "type": "ADME", "details": "read-out: PB (converted)"}, "[6]": {"test": "Protein binding in human liver microsomes by LC-MS analysis based ultracentrifugation assay", "type": "ADME, Microsome", "details": "read-out: PB (converted)"}, "[7]": {"test": "Protein binding in DMEM medium containing 10% fetal calf serum by LC-MS analysis based ultracentrifugation assay", "type": "ADME, cell-free, Bos taurus", "details": "cattle, DMEM medium containing 10% fetal calf serum; read-out: PB (converted)"}, "[8]": {"test": "Apparent half life in Swiss mouse at […], iv administered as bolus dose measured up to 24 hrs by UPLC-MS analysis", "type": "ADME, organism-based", "details": "in vivo"}, "[9]": {"test": "Volume of drug distribution at steady state in Swiss mouse at […], iv administered as bolus dose measured up to 24 hrs by UPLC-MS analysis", "type": "ADME, organism-based", "details": "in vivo"}, "[10]": {"test": "AUC (0 to infinity) in Swiss mouse at […], iv administered as bolus dose measured up to 24 hrs by UPLC-MS analysis", "type": "ADME, organism-based", "parameters": "dose 2.8 mg/kg, route intravenous, time infinity", "details": "in vivo"}, "[11]": {"test": "Cmax in Swiss mouse at 10.5 mg/kg, po via gavage measured up to 24 hrs by UPLC-MS analysis", "type": "ADME, organism-based", "parameters": "dose 10.5 mg/kg, route oral", "details": "in vivo"}, "[12]": {"test": "Apparent half life in Swiss mouse at 18.3 mg/kg, po via gavage measured up to 24 hrs by UPLC-MS analysis", "type": "ADME, organism-based", "details": "in vivo"}, "[13]": {"test": "Cmax in Swiss mouse at 18.3 mg/kg, po via gavage measured up to 24 hrs by UPLC-MS analysis", "type": "ADME, organism-based", "parameters": "dose 18.3 mg/kg, route oral", "details": "in vivo"}, "[14]": {"test": "AUC (0 to infinity) in Swiss mouse at 18.3 mg/kg, po via gavage measured up to 24 hrs by UPLC-MS analysis", "type": "ADME, organism-based", "parameters": "dose 18.3 mg/kg, time infinity, route oral", "details": "in vivo"}, "[15]": {"test": "AUC (0 to infinity) in Swiss mouse blood at 18.3 mg/kg, po via gavage measured up to 24 hrs by UPLC-MS analysis", "type": "ADME, organism-based", "parameters": "dose 18.3 mg/kg, route oral, time infinity", "details": "in vivo"}, "[16]": {"test": "Apparent half life in Swiss mouse at 50 mg/kg, po via gavage measured up to 24 hrs by UPLC-MS analysis", "type": "ADME, organism-based", "details": "in vivo"}, "[17]": {"test": "Cmax in Swiss mouse blood at 50 mg/kg, po via gavage measured up to 24 hrs by UPLC-MS analysis", "type": "ADME, organism-based", "parameters": "dose 50 mg/kg, route oral", "details": "in vivo"}, "[18]": {"test": "AUC (0 to infinity) in Swiss mouse at 50 mg/kg, po via gavage measured up to 24 hrs by UPLC-MS analysis", "type": "ADME, organism-based", "parameters": "dose 50 mg/kg, route oral, time infinity", "details": "in vivo"}, "[19]": {"test": "Oral bioavailability in Swiss mouse at 50 mg/kg dosed via gavage measured up to 24 hrs by UPLC-MS analysis", "type": "ADME, organism-based", "details": "in vivo"}, "[20]": {"test": "Clearance in Sprague-Dawley rat plasma at […], iv administered as infusion for 10 mins and measured up to 24 hrs by LC-MS analysis", "type": "ADME, organism-based", "details": "in vivo"}, "[21]": {"test": "Volume of distribution at steady state in Sprague-Dawley rat at […], iv administered as infusion for 10 mins and measured up to 24 hrs by LC-MS analysis", "type": "ADME, organism-based", "details": "in vivo, read-out: Vdss"}, "[22]": {"test": "Apparent half life in Sprague-Dawley rat at 3 mg/kg, po administered via gavage measured up to 24 hrs by LC-MS analysis", "type": "ADME, organism-based", "details": "in vivo"}, "[23]": {"test": "Cmax in Sprague-Dawley rat at 3 mg/kg, po administered via gavage measured up to 24 hrs by LC-MS analysis", "type": "ADME, organism-based", "parameters": "dose 3 mg/kg, route oral", "details": "in vivo"}, "[24]": {"test": "Oral bioavailability in Sprague-Dawley rat at 33 mg/kg administered via gavage measured up to 24 hrs by LC-MS analysis", "type": "ADME, organism-based", "details": "in vivo"}, "[25]": {"test": "AUC (0 to 23 hrs) in NOD-SCID IL2Rgamma null mouse blood infected with Plasmodium falciparum 3D70087/N9 at 50 mg/kg, po qd for 4 days starting from 3 days post infection and measured after 24 hrs post dose by LC-MS/MS analysis", "type": "ADME, organism-based", "parameters": "dose 50 mg/kg, time < 23 hr, route oral"}, "Cytochrome P450 2C9 [26]": {"target": "T1, Cytochrome P450 2C9 (Homo sapiens, UniProt P11712)", "T1 sequence (P11712 whole entry)": "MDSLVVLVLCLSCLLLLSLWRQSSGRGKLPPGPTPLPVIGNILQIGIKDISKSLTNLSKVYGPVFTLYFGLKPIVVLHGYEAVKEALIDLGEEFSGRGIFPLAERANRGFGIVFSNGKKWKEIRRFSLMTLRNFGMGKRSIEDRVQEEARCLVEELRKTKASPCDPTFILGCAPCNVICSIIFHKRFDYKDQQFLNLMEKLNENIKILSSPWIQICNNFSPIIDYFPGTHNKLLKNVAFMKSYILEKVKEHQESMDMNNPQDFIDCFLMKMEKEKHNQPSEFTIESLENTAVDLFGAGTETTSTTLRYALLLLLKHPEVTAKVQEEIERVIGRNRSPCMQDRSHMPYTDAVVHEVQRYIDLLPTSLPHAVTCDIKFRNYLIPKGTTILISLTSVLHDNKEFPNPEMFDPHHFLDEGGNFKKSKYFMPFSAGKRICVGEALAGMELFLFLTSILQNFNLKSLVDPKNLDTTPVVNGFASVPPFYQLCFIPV", "test": "Time-dependent inhibition of CYP2C9 in human liver microsomes using tolbutamide as substrate in presence of NADPH regenerating system by UPLC-MS analysis", "type": "ADME"}, "Cytochrome P450 2C19 [27]": {"target": "T2, Cytochrome P450 2C19 (Homo sapiens, UniProt P33261)", "T2 sequence (P33261 whole entry)": "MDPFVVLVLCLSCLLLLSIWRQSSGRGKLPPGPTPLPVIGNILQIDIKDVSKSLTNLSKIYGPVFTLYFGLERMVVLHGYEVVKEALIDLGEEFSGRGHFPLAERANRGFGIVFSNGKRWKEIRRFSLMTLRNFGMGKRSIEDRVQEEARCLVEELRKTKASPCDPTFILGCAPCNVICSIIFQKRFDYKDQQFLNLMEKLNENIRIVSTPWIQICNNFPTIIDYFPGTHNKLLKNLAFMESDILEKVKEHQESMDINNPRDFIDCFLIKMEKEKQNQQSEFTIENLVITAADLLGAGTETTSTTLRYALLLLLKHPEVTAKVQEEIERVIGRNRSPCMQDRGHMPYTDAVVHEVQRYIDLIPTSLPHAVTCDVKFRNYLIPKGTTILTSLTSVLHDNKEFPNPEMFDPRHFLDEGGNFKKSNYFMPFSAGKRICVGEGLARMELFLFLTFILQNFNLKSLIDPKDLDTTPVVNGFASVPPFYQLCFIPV", "test": "Time-dependent inhibition of CYP2C19 in human liver microsomes using (S)-mephenytoin as substrate in presence of NADPH regenerating system by UPLC-MS analysis", "type": "ADME"}, "Cytochrome P450 2C9 [28]": {"target": "T1, Cytochrome P450 2C9", "test": "Time-dependent inhibition of CYP2C9 in human liver microsomes using tolbutamide as substrate in absence of NADPH regenerating system by UPLC-MS analysis", "type": "ADME"}, "Cytochrome P450 2C19 [29]": {"target": "T2, Cytochrome P450 2C19", "test": "Time-dependent inhibition of CYP2C19 in human liver microsomes using (S)-mephenytoin as substrate in absence of NADPH regenerating system by UPLC-MS analysis", "type": "ADME"}, "[30]": {"test": "Toxicity in Plasmodium falciparum 3D70087/N9 infected NOD-SCID IL2Rgamma null mouse assessed as death at 10 mg/kg, po administered once daily for 4 days measured 24 hrs post dose", "type": "organism-based", "details": "in vivo"}, "[31]": {"details": "simulated gi fluid, pH 1.6"}, "Plasmodium falciparum [32]": {"system": "Plasmodium falciparum"}, "physchem": {"test": "physchem", "details": "octanol/water, pH 7.4"}, "CYP3A4/5": {"target": "CYP3A4/5 (Homo sapiens, UniProt P08684+P20815)", "test": "in vitro", "details": "liver microsomes, probe testosterone"}, "Plasmodium falciparum [33]": {"system": "Plasmodium falciparum", "test": "animal or person", "details": "3D70087/N9, in Mus musculus, po, 96 h"}, "[34]": {"test": "Cmax in Swiss mouse blood at 10.5 mg/kg, po via gavage measured up to 24 hrs by UPLC-MS analysis", "details": "in vivo"}, "[35]": {"test": "Cmax in NOD-SCID IL2Rgamma null mouse blood infected with Plasmodium falciparum 3D70087/N9 at 50 mg/kg, po qd for 4 days starting from 3 days post infection and measured after 24 hrs post dose by LC-MS/MS analysis"}}}
{"smiles": "Cc1c(Cc2ccc(C(F)(F)F)nc2)c[nH]c1C(=O)NC1CC1", "values": [{"measurement": "EC50", "setting": "Plasmodium falciparum [1]", "result": 0.024, "unit": "µM"}, {"measurement": "CC50", "setting": "L1210", "result": "> 50", "unit": "µM"}, {"measurement": "EC50", "setting": "[2]", "result": "> 33", "unit": "µM"}, {"measurement": "EC50", "setting": "[3]", "result": "> 11", "unit": "µM"}, {"measurement": "fraction unbound", "setting": "[4]", "result": 0.1}, {"measurement": "fraction unbound", "setting": "[5]", "result": 0.111}, {"measurement": "fraction unbound", "setting": "Albumin", "result": 0.482}, {"measurement": "fraction unbound", "setting": "[6]", "result": 0.701}, {"measurement": "fraction unbound", "setting": "[7]", "result": 0.685}, {"measurement": "t1/2(app)", "setting": "[8]", "result": 2.8, "unit": "h"}, {"measurement": "Vdss", "setting": "[9]", "result": 1.2, "unit": "L/kg"}, {"measurement": "AUC", "setting": "[10]", "result": 5.6, "unit": "µM·h"}, {"measurement": "Cmax", "setting": "[11]", "result": 4.6, "unit": "µM"}, {"measurement": "t1/2(app)", "setting": "[12]", "result": 2.6, "unit": "h"}, {"measurement": "Cmax", "setting": "[13]", "result": 8.4, "unit": "µM"}, {"measurement": "AUC", "setting": "[14]", "result": 55.6, "unit": "µM·h"}, {"measurement": "AUC", "setting": "[15]", "result": 44.5, "unit": "µM·h"}, {"measurement": "t1/2(app)", "setting": "[16]", "result": 3.6, "unit": "h"}, {"measurement": "Cmax", "setting": "[17]", "result": 33.8, "unit": "µM"}, {"measurement": "AUC", "setting": "[18]", "result": 220, "unit": "µM·h"}, {"measurement": "F", "setting": "[19]", "result": "> 100", "unit": "%"}, {"measurement": "clearance", "setting": "[20]", "result": 28.6, "unit": "mL/min/kg"}, {"measurement": "Vd", "setting": "[21]", "result": 4.7, "unit": "L/kg"}, {"measurement": "t1/2(app)", "setting": "[22]", "result": 3.9, "unit": "h"}, {"measurement": "Cmax", "setting": "[23]", "result": 1.7, "unit": "µM"}, {"measurement": "F", "setting": "[24]", "result": "> 100", "unit": "%"}, {"measurement": "AUC at 23 h", "setting": "[25]", "result": 26.7, "unit": "µM·h"}, {"measurement": "TDI", "setting": "Cytochrome P450 2C9 [26]", "result": "Not Active"}, {"measurement": "TDI", "setting": "Cytochrome P450 2C19 [27]", "result": "Not Active"}, {"measurement": "TDI", "setting": "Cytochrome P450 2C9 [28]", "result": "Not Active"}, {"measurement": "TDI", "setting": "Cytochrome P450 2C19 [29]", "result": "Not Active"}, {"measurement": "Activity", "setting": "[30]", "result": "Toxic"}, {"measurement": "solubility", "setting": "[31]", "result": 46.4, "unit": "µg/mL"}, {"measurement": "fEC50", "setting": "Plasmodium falciparum [32]", "result": 0.0077, "unit": "µM"}, {"measurement": "logD", "setting": "physchem", "result": 2.8}, {"measurement": "IC50", "setting": "CYP3A4/5", "result": "> 20", "unit": "µM"}, {"measurement": "ED90", "setting": "Plasmodium falciparum [33]", "result": 50, "unit": "mg/kg/day"}, {"measurement": "Cmax", "setting": "[34]", "result": 3.7, "unit": "µM"}, {"measurement": "Cmax", "setting": "[35]", "result": 7.81, "unit": "µM"}]}
